Source: patent US20240246913A1, “2-CARBOXYL-INDOLE INHIBITORS OF METALLO-BETA-LACTAMASES” (Oxford University Innovation Limited, priority 2021, published 2024)

Tests used:
VIM-2 = VIM-2 (Escherichia coli, UniProt Q5U7L7); experiment: MBL inhibition, FC-5 fluorescence assay, VIM-2; type: biochemical; settings: FC-5 cephalosporin substrate, ranges of obtained pIC50, read-out: pIC50 VIM-2 (converted)
In short: (§1)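 Reported potencies derive from normalized dose-response fits with variable slope, built on initial hydrolysis rates of fluorogenic cephalosporin FC-5 monitored at 380/460 nm, with quadruplicate wells at every concentration.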

NDM-1 = NDM-1 (Klebsiella pneumoniae, UniProt C7C422); experiment: MBL inhibition, FC-5 fluorescence assay, NDM-1; type: biochemical; settings: FC-5 cephalosporin substrate, fluorescence; ranges of obtained pIC50; read-out: pIC50 NDM-1 (converted)
Sequence of NDM-1 (C7C422 29-270, looked up, species assumed): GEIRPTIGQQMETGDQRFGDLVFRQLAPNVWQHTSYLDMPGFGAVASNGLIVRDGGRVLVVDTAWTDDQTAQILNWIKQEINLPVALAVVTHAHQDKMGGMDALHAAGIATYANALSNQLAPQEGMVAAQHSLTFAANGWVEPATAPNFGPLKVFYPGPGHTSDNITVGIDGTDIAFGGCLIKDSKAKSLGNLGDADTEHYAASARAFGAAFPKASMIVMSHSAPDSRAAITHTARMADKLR
In short: as §1

IMP-1 = IMP-1 (Serratia marcescens, UniProt P52699); experiment: MBL inhibition, FC-5 fluorescence assay, IMP-1; type: biochemical; settings: FC-5 cephalosporin substrate, fluorescence; ranges of obtained pIC50; read-out: pIC50 IMP-1 (converted)
Sequence of IMP-1 (P52699 19-246, looked up, species assumed): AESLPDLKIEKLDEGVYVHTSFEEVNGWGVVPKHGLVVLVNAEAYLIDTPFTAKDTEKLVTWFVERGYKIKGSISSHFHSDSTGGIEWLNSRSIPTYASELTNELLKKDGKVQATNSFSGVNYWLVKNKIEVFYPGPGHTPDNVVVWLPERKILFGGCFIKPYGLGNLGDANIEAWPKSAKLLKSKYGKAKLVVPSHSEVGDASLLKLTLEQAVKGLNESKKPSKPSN
In short: as §1

VIM-1 = VIM-1 (Pseudomonas aeruginosa, UniProt A0A0F7KYQ8); experiment: MBL inhibition, FC-5 fluorescence assay, VIM-1; type: biochemical; settings: FC-5 cephalosporin substrate, ranges of obtained pIC50, read-out: pIC50 VIM-1 (converted)
In short: as §1

[1] = tested on: Acinetobacter baumannii NDM-1; experiment: Antibiotic susceptibility testing (MIC), AB NDM-1; type: cell-based; settings: agar or broth dilution (CLSI/EUCAST)
Protocol: (§2) Antibiotic susceptibility testing was performed using the agar or broth dilution method, in line with the Clinical and Laboratory Standards Institute (CLSI) and European Committee on Antimicrobial Susceptibility Testing (EUCAST) requirements.

Escherichia coli NDM-7 = experiment: Antibiotic susceptibility testing (MIC), EC NDM-7; type: cell-based; settings: agar or broth dilution (CLSI/EUCAST)
Protocol: as §2

Escherichia coli NDM-1 = experiment: Antibiotic susceptibility testing (MIC), EC NDM-1; type: cell-based; settings: agar or broth dilution (CLSI/EUCAST)
Protocol: as §2

[2] = Metabolic stability in human hepatocytes; type: in vitro ADME; settings: cryopreserved human hepatocytes, 1 μM compound, 37° C., up to 90 min, read-out: Metabolic stability in hepatocytes, in vitro t1/2, Human
In short: (§3)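 Cryopreserved hepatocytes at 1.0×10^6 cells/ml in Williams medium E were incubated with 1 μM compound (final) at 37° C. Samples at 0, 5, 15, 30, 60 and 90 min were quenched with MeCN containing warfarin internal standard and analysed by LC-MS/MS.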

[3] = Metabolic stability in mouse hepatocytes; type: in vitro ADME; settings: cryopreserved mouse hepatocytes, 1 μM compound, 37° C., up to 90 min, read-out: Metabolic stability in hepatocytes, in vitro t1/2, Mouse
In short: as §3

[4] = Plasma protein binding, equilibrium dialysis, human plasma; type: in vitro ADME; settings: pH 7.4, equilibrium dialysis (RED) 4 hours at 37° C., read-out: Plasma protein binding, fu, Human
In short: (§4)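 Compound at 10 μM in plasma dialysed against 67 mM phosphate buffer pH 7.4 for 4 h at 37° C. in RED device; unbound fraction from buffer and plasma levels by LC-MS/MS. Plasma stability checked in parallel over 4 h at 37° C. versus frozen control.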

[5] = Plasma protein binding, equilibrium dialysis, mouse plasma; type: in vitro ADME; settings: pH 7.4, equilibrium dialysis (RED) 4 hours at 37° C., read-out: Plasma protein binding, fu, Mouse
In short: as §4

bacteria = experiment: Thigh and/or septicaemia mouse model of infection, with meropenem; type: in vivo; settings: NMRI mice; single dose with meropenem subcutaneous 1 h after inoculation; endpoint 3 h after treatment initiation
Protocol: Female NMRI mice (5-6 weeks old, 26-30 gram, n=5) were rendered neutropenic via intraperitoneal injection of two doses of cyclophosphamide on day 4 and day 1 before infection. The animals were infected via intramuscular injection of an inoculum containing 10^6 CFU/mL of bacteria in the left thigh. The animals were treated with a single dose of meropenem subcutaneous +/− inhibitor 1 h after inoculation, and animals were either euthanised at the start of treatment or at the study endpoint at 3 h after treatment initiation. Clinical scores were monitored at 1 and 4 hours post inoculation and were in all cases mild or moderate. Thighs were aseptically removed from the animals, homogenised, diluted, and plated for incubation. Bacterial counting was performed after 18-22 h of incubation at 35° C. in ambient air.
Immunocompetent female NMRI mice mice (5-6 weeks old, 26-30 gram, n=5) were inoculated intraperitoneally with 0.5 ml inoculum containing 5×10^5 CFU suspended in 5% porcine mucin.
The animals were treated with a single dose of meropenem subcutaneous+/−metallo-b-lactamase inhibitor intravenous 1 h after inoculation. Animals were either euthanised at the start of treatment or at the study endpoint at 3 h after treatment initiation. Clinical scores were monitored at 1 and 4 hours post inoculation and were in all cases mild or moderate. Mice were anaesthetised anesthetized with a buprenorphine/tiletamine/zolazepam cocktail and bled, then euthanized and the peritoneum flushed with 2 ml sterile 0.9% NaCl and collected. The blood and/or peritoneal flush were serially diluted and plated for incubation. Bacterial counting was performed after 18-22 h of incubation at 35° C. in ambient air.

| Structure (SMILES) | IC50 (VIM-2) | IC50 (NDM-1) | IC50 (IMP-1) | IC50 (VIM-1) | MIC values AB NDM-1 [1] | MIC values EC NDM-7 (Escherichia coli NDM-7) | MIC values EC NDM-1 (Escherichia coli NDM-1) | half-life at 1 μM [2] | half-life at 1 μM [3] | fraction unbound at 4 h, 10 μM [4] | fraction unbound at 4 h, 10 μM [5] | Dose required to reduce minim 1 log fold CFU in a thigh and or a sepsis animal model (bacteria) |
| --- | --- | --- | --- | --- | --- | --- | --- | --- | --- | --- | --- | --- |
| COc1cc(-c2c(C(=O)O)[nH]c3c([C@H](C)n4cc(CN5CC(N)C5)oc4=O)cccc23)ccn1 [IC-56, 7-[(1S)-1-{5-[(3-aminoazetidin-1-yl)methyl]-2-oxo-2,3-dihydro-1,3-oxazol-3-yl}ethyl]-3-(2-methoxypyridin-4-yl)-1H-indole-2-carboxylic acid] | 0.1 to 1 nM | < 0.1 nM | > 10 nM | > 10 nM | B (B MIC values 2 ÷ 8) | A (A = MIC values ≤ 1) | A (A = MIC values ≤ 1) | > 6.67 h | < 2.5 h | 0.05 to 0.25 | 0.005 to 0.05 | C (C = 5-10 mg/kg) |
| C[C@@H](c1cccc2c(-c3ccc(NS(C)(=O)=O)c(F)c3)c(C(=O)O)[nH]c12)n1cc(CN2CC(N)C2)oc1=O [IC-57, 7-[(1S)-1-{5-[(3-Aminoazetidin-1-yl)methyl]-2-oxo-2,3-dihydro-1,3-oxazol-3-yl}ethyl]-3-(3-fluoro-4-methanesulfonamidophenyl)-1H-indole-2-carboxylic acid] | 0.1 to 1 nM | < 0.1 nM | > 10 nM | 1 to 10 nM | A (A = MIC values ≤ 1) | A (A = MIC values ≤ 1) | A (A = MIC values ≤ 1) | 2.5 to 6.67 h | < 2.5 h | 0.05 to 0.25 | 0.005 to 0.05 | B (B = 30-10 mg/kg) |
| C[C@@H](c1cccc2c(-c3ccc(CS(C)(=O)=O)c(F)c3)c(C(=O)O)[nH]c12)N1C[C@]2(C[C@@H](CN)C2)OC1=O [IC-60, 7-((1S)-1-(2S,4r)-(2-(aminomethyl)-6-oxo-5-oxa-7-azaspiro[3.4]oct-7-yl)ethyl)-3-(3-fluoro-4-((methylsulfonyl)methyl)phenyl)-1H-indole-2-carboxylic acid] | 0.1 to 1 nM | < 0.1 nM | > 10 nM | 0.1 to 1 nM | A (A = MIC values ≤ 1) | A (A = MIC values ≤ 1) | A (A = MIC values ≤ 1) | > 6.67 h | > 6.67 h | > 0.25 | 0.05 to 0.25 | C (C = 5-10 mg/kg) |
